The values that follow come from US20110280939A1 (EVEREST PHARM. INDUSTRIAL CO., LTD., priority 2007, published 2011).

Structures can show the parent of a compound that is named as a salt.

The series in a line: average excretion half time in human body.

With `CN[C@@H](C)[C@@H](O)c1ccccc1` [pseudoephedrine hydrochloride], the “average excretion half time” value came out at 4.76 ± 0.44 h.
